Data on 3 molecules can be found in US20090111818A1, “Combinations of Eszopiclone and O-Desmethylvenlafaxine, and Methods of Treatment of Menopause and Mood, Anxiety, and Cognitive Disorders” (SEPRACOR INC., priority 2005, published 2009).

The subject of data set [1] is norepinephrine synaptosomal uptake. Particulars: cited from earlier work.
For data set [2] the following is noted: in vivo; cited from earlier work.
The test system of the next data set is norepinephrine uptake. The following applies: in vitro; cited from earlier work.
The next data set concerns dopamine uptake. Particulars: in vitro; cited from earlier work.
Data set [3] relates to women with insomnia secondary to perimenopause or menopause. In words: Clinical study of eszopiclone 3 mg vs placebo: number of nocturnal awakenings due to hot flashes. In kind it is in vivo, human. Particulars: Week 1; 3 mg nightly; p<0.0001. Here is the method: The study was aimed at observing efficacy of eszopiclone 3 mg compared to placebo in the treatment of insomnia secondary to perimenopause or menopause.
The study was a multicenter, randomized, double-blind, placebo-controlled, parallel-group study. […] The primary method of analysis compared the post-randomization results between the two treatment groups.
Subjects were women with insomnia secondary to perimenopause or menopause. Subjects were perimenopausal or menopausal and had insomnia symptoms including ≧45 minutes sleep latency (SL) and total sleep time (TST) ≦6 hours. Perimenopausal/menopausal symptoms predated the onset of sleep disturbance symptoms. The patient population was predominately Caucasian (77.2%). The mean age was 49, with a range of 40-60.
A total of 410 subjects were randomized. Among them, 201 received 3 mg of eszopiclone (ESZ) nightly (at bedtime) for four weeks and 209 received matching placebo (PBO).

Structures are written as SMILES.

Consider `COc1ccc(C(CN(C)C)C2(O)CCCCC2)cc1` (single isomer, unassigned) [venlafaxine (−) enantiomer], for which the “inhibition of norepinephrine synaptosomal uptake, comparison of enantiomers” value in data set [1] is recorded as “more potent inhibitor”.

Consider `CN(C)CC(c1ccc(O)cc1)C1(O)CCCCC1` (racemic) [O-desmethylvenlafaxine, (±)-1-[2-(dimethylamino)-1-(4-hydroxyphenyl)ethyl]-cyclohexanol], for which, in data set [2], the “half-life (t½)” value is given as “about 10 hours” and the “half-life relative to that of venlafaxine” value is given as “approximately 2.5 times”. For the same molecule, in the data set on norepinephrine uptake, the “inhibition of norepinephrine uptake compared with the parent compound venlafaxine” value is given as “more potent inhibitor”. Further, the “inhibition of dopamine uptake compared with the parent compound venlafaxine” value in the data set with dopamine uptake is on record as “more potent inhibitor”.

As for `CN1CCN(C(=O)O[C@H]2c3nccnc3C(=O)N2c2ccc(Cl)cn2)CC1` [Eszopiclone, (+) 6-(5-chloropyrid-2-yl)-5-(4-methylpiperazin-1-yl)carbonyloxy-7-oxo-6,7-dihydro-5H-pyrrolo[3-4-b]pyrazine], the “change from baseline in number of nocturnal awakenings due to hot flashes compared with PBO” value in data set [3] is “significantly reduced”.
